The values that follow come from article PMC6936217 (Science translational medicine, 2019).

One experiment has as its target 15N-labeled EBNA1 (Epstein-Barr virus, UniProt P03211). Briefly: HSQC NMR with 15N-labeled EBNA1. It counts as binding. The settings on record: 50 μM ligand.
The target of another experiment is EBNA1 (Epstein-Barr virus, UniProt P03211). The experiment in a line: ALPHA proximity DNA binding assay.
The mark [1] stands for this setting: read-out: IC50, inhibition of EBNA1 DNA binding, ALPHA proximity assay.

Structures are written as SMILES. Like-named read-outs stand apart in the source and are kept apart here.

EBNA1, sequence (P03211 459-607): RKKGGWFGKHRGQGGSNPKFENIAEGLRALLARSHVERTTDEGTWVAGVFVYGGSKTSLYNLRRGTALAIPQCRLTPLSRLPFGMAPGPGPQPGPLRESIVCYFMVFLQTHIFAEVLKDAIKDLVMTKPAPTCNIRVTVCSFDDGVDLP
15N-labeled EBNA1, sequence (P03211 459-607): as above

Turning to `O=C(O)c1cccc(C#Cc2ccccc2)c1-n1cccc1` [VK-0497, 2-pyrrolo-3-phenylacetylenyl benzoic acid], the “binding to EBNA1 by chemical shift changes” value at 15N-labeled EBNA1 was “direct binding”. Also, at EBNA1 (setting [1]), the IC50 (commonly the concentration that gives 50% inhibition) is 0.89 µM.
`O=C(O)c1cncc(C#Cc2ccccc2)c1` [VK-0044, 5-phenylacetylenyl nicotinic acid] had an IC50 on EBNA1 of 110 µM.
Turning to `O=C(O)c1ccccc1-n1cccc1` [VK-0064, 2-pyrrolo-benzoic acid], the IC50 at EBNA1 (setting [1]) was 2 µM.
